Measurements reported in ChEMBL document CHEMBL1154724, “Synthesis and antimicrobial activity evaluation of new 1,2,4-triazoles and 1,3,4-thiadiazoles bearing imidazo[2,1-b]thiazole moiety” (2010).
Converted amounts (≈) assume the structure as drawn. The source made the active and inactive calls. The calls are words filed in the database; no cut-off is given here.

Experiments:
Assay type in all cases: functional
[1] = tested on: Mycobacterium tuberculosis; test: Antimycobacterial activity against Mycobacterium tuberculosis H37Rv ATCC 27294 by microplate alamar blue assay
Staphylococcus aureus = test: Antibacterial activity against Staphylococcus aureus ATCC 29213 after 16 to 20 hrs by microbroth dilution method
Pseudomonas aeruginosa = test: Antibacterial activity against Pseudomonas aeruginosa ATCC 27853 after 16 to 20 hrs by microbroth dilution method
Nannizzia gypsea = test: Antifungal activity against Microsporum gypseum NCPF 580 after 7 days by microbroth dilution method; conditions: NCPF 580, 168 h, read-out: MIC100
Trichophyton tonsurans = test: Antifungal activity against Trichophyton tonsurans NCPF 245 after 7 days by microbroth dilution method; conditions: NCPF 245, 168 h, read-out: MIC100
Trichophyton erinacei = test: Antifungal activity against Trichophyton mentagrophytes var. erinacei NCPF 375 after 7 days by microbroth dilution method; conditions: NCPF 375, 168 h, read-out: MIC100
Candida albicans = test: Antifungal activity against Candida albicans ATCC 10231 after 48 hrs by microbroth dilution method; conditions: ATCC 10231, 48 h
Candida parapsilosis = test: Antifungal activity against Candida parapsilosis ATCC 22019 after 48 hrs by microbroth dilution method; conditions: Lodderomyces parapsilosis, ATCC 22019, 48 h
Pichia kudriavzevii = test: Antifungal activity against Candida krusei ATCC 6258 after 48 hrs by microbroth dilution method; conditions: ATCC 6258, 48 h
Escherichia coli = test: Antibacterial activity against Escherichia coli ATCC 25922 after 16 to 20 hrs by microbroth dilution method
[2] = Mycobacterium tuberculosis, H37Rv ATCC 27294

Compound | inhibition (INH) [1] [%] | MIC ([1]; Mycobacterium tuberculosis, H37Rv ATCC 27294, read-out: MIC100) [µg/mL] | MIC (Staphylococcus aureus) [µg/mL] | MIC (Pseudomonas aeruginosa) [µg/mL] | MIC (Nannizzia gypsea) [µg/mL] | MIC (Trichophyton tonsurans) [µg/mL] | MIC (Trichophyton erinacei) [µg/mL] | MIC (Candida albicans) [µg/mL] | MIC (Candida parapsilosis) [µg/mL] | MIC (Pichia kudriavzevii) [µg/mL] | MIC (Escherichia coli) [µg/mL] | inhibition [1] | MIC90 [1, 2] [µg/mL]
CO[C@H]1/C=C/O[C@@]2(C)Oc3c(C)c(O)c4c(O)c(c(/C=N/N5CCN(C)CC5)c(O)c4c3C2=O)NC(=O)/C(C)=C\C=C\[C@H](C)[C@H](O)[C@@H](C)[C@@H](O)[C@@H](C)[C@H](OC(C)=O)[C@@H]1C [RIFAMPIN] | 97 | 0.25 (≈ 0.304 µM) | – | – | – | – | – | – | – | – | – | – | –
C[C@H]1COc2c(N3CCN(C)CC3)c(F)cc3c(=O)c(C(=O)O)cn1c23.C[C@H]1COc2c(N3CCN(C)CC3)c(F)cc3c(=O)c(C(=O)O)cn1c23.O [LEVOFLOXACIN] | – | – | 0.12 | 0.5 | – | – | – | – | – | – | – | – | –
C[C@@H]1[C@H](O)[C@@H](C)/C=C/C=C/C=C/C=C/C=C/C=C/C=C/[C@H](O[C@@H]2O[C@H](C)[C@@H](O)[C@H](N)[C@@H]2O)C[C@@H]2O[C@](O)(C[C@@H](O)C[C@@H](O)[C@H](O)CC[C@@H](O)C[C@@H](O)CC(=O)O[C@H]1C)C[C@H](O)[C@H]2C(=O)O [AMPHOTERICIN B] | – | – | – | – | 0.5 (≈ 0.541 µM) | 0.25 (≈ 0.271 µM) | 0.5 (≈ 0.541 µM) | – | – | – | – | – | –
CCC(C)n1ncn(-c2ccc(N3CCN(c4ccc(OCC5COC(Cn6cncn6)(c6ccc(Cl)cc6Cl)O5)cc4)CC3)cc2)c1=O (configuration not stated) [ITRACONAZOLE] | – | – | – | – | – | – | – | 0.12 (≈ 0.17 µM) | 0.06 (≈ 0.085 µM) | 0.12 (≈ 0.17 µM) | – | – | –
S=c1[nH]nc(Cc2csc3nc(-c4ccc(Br)cc4)cn23)n1-c1ccc(Cl)cc1 | – | – | > 64 | > 64 | 32 (≈ 63.6 µM) | 32 (≈ 63.6 µM) | 32 (≈ 63.6 µM) | 64 (≈ 127 µM) | > 64 | 64 (≈ 127 µM) | > 64 | inactive | > 6.25
CCCCn1c(Cc2csc3nc(-c4ccc(Br)cc4)cn23)n[nH]c1=S | – | – | 32 (≈ 71.4 µM) | 64 (≈ 143 µM) | 32 (≈ 71.4 µM) | 32 (≈ 71.4 µM) | 32 (≈ 71.4 µM) | 32 (≈ 71.4 µM) | 64 (≈ 143 µM) | 64 (≈ 143 µM) | 32 (≈ 71.4 µM) | inactive | > 6.25
C=CCn1c(Cc2csc3nc(-c4ccc(Br)cc4)cn23)n[nH]c1=S | 1 | – | > 64 | > 64 | 64 (≈ 148 µM) | 32 (≈ 74 µM) | 64 (≈ 148 µM) | 64 (≈ 148 µM) | 64 (≈ 148 µM) | 64 (≈ 148 µM) | > 64 | – | > 6.25
CCCn1c(Cc2csc3nc(-c4ccc(Br)cc4)cn23)n[nH]c1=S | – | – | 64 (≈ 147 µM) | > 64 | 16 (≈ 36.8 µM) | 8 (≈ 18.4 µM) | 16 (≈ 36.8 µM) | 32 (≈ 73.7 µM) | 64 (≈ 147 µM) | 64 (≈ 147 µM) | 64 (≈ 147 µM) | inactive | > 6.25
S=c1[nH]nc(Cc2csc3nc(-c4ccc(Br)cc4)cn23)n1-c1ccc(Br)cc1 | – | – | > 64 | > 64 | 64 (≈ 117 µM) | 32 (≈ 58.5 µM) | 64 (≈ 117 µM) | 64 (≈ 117 µM) | 32 (≈ 58.5 µM) | 64 (≈ 117 µM) | > 64 | inactive | > 6.25
Cc1ccc(-n2c(Cc3csc4nc(-c5ccc(Br)cc5)cn34)n[nH]c2=S)cc1 | 4 | – | 64 (≈ 133 µM) | 64 (≈ 133 µM) | 16 (≈ 33.2 µM) | 16 (≈ 33.2 µM) | 16 (≈ 33.2 µM) | 16 (≈ 33.2 µM) | 16 (≈ 33.2 µM) | 16 (≈ 33.2 µM) | 64 (≈ 133 µM) | – | > 6.25
S=c1[nH]nc(Cc2csc3nc(-c4ccc(Br)cc4)cn23)n1-c1ccccc1 | 3 | – | 64 (≈ 137 µM) | > 64 | 32 (≈ 68.3 µM) | 16 (≈ 34.2 µM) | 32 (≈ 68.3 µM) | 32 (≈ 68.3 µM) | 32 (≈ 68.3 µM) | 32 (≈ 68.3 µM) | > 64 | – | > 6.25
Cn1c(Cc2csc3nc(-c4ccc(Br)cc4)cn23)n[nH]c1=S | – | – | > 64 | > 64 | 16 (≈ 39.4 µM) | 16 (≈ 39.4 µM) | 8 (≈ 19.7 µM) | 32 (≈ 78.8 µM) | 32 (≈ 78.8 µM) | 32 (≈ 78.8 µM) | > 64 | inactive | > 6.25
CNc1nnc(Cc2csc3nc(-c4ccc(Br)cc4)cn23)s1 | – | – | > 64 | > 64 | 16 (≈ 39.4 µM) | 8 (≈ 19.7 µM) | 16 (≈ 39.4 µM) | 32 (≈ 78.8 µM) | 16 (≈ 39.4 µM) | 16 (≈ 39.4 µM) | > 64 | – | –
CCNc1nnc(Cc2csc3nc(-c4ccc(Br)cc4)cn23)s1 | – | – | 64 (≈ 152 µM) | 64 (≈ 152 µM) | 16 (≈ 38.1 µM) | 8 (≈ 19 µM) | 16 (≈ 38.1 µM) | 64 (≈ 152 µM) | 64 (≈ 152 µM) | 32 (≈ 76.1 µM) | 32 (≈ 76.1 µM) | – | –
CCn1c(Cc2csc3nc(-c4ccc(Br)cc4)cn23)n[nH]c1=S | – | – | 64 (≈ 152 µM) | > 64 | 16 (≈ 38.1 µM) | 8 (≈ 19 µM) | 16 (≈ 38.1 µM) | 32 (≈ 76.1 µM) | 32 (≈ 76.1 µM) | 32 (≈ 76.1 µM) | 64 (≈ 152 µM) | inactive | > 6.25
